The values that follow come from patent US4194055A, “15,16-dioxy prostenoic acids and esters” (American Cyanamid Company, priority 1978, dated 1980).

In assay [1] the test system is basal gastric acid secretion. The assay can be described thus: Inhibition of gastric acid secretion in the acute gastric fistula rat. Type of assay: in vivo, Female Sprague-Dawley rats. To be noted: intraduodenal. The protocol: The compounds of this invention are also useful as inhibitors of gastric acid secretion and peptic ulcer formation and may be used for the treatment of gastric hyperacidity, gastric erosion, and peptic ulcer. Inhibition of basal gastric acid secretion can be determined by the following procedure.
Female Sprague-Dawley rats weighing 140-160 grams are fasted in individual cages for 18-24 hours. The rats are then lightly anesthetized with ether and their front teeth extracted to avoid destruction of the plastic cannula. A midline incision is then made and the stomach and duodenum exposed. A flanged polyvinyl tube is inserted into the fundic portion of the stomach and secured with a purse string suture line using 4-O Mersilene. The rat is then dosed by injection of the compound into the duodenum (1.0 ml. per 100 gram body weight). After dosing, the abdominal wall and skin are closed using metal wound clips. The rat is replaced in a cage containing a longitudinal slit to allow the polyvinyl tube to hang freely. An 8 ml. plastic collecting tube is attached to the flanged cannula and hangs freely below the cage. The first 30 minute sample is discarded designating this time as zero. The collecting tube is attached again and samples removed at the end of 60 and 120 minutes. The hourly samples are then transferred to a 15 ml. centrifuge and centrifuged for 5-10 minutes. Total and sediment volume are then recorded with the supernatant volume being used as volume of secretion. A 1 ml. or less aliquot is then removed and placed in a 50 ml. beaker containing 10 ml. of distilled water. This sample is then titrated using 0.01 N NaOH to pH 7.0 using a Beckman zeromatic pH meter. Volume, titratable acidity (meq/L) and total acid output (ueg/hour) are recorded. Percent inhibition is determined by comparison with the appropriate control. Groups of three rats were used for preliminary testing, and groups of six rats were used for dose-response evaluations. All compounds are administered in a vehicle consisting of 0.5% methocel, 0.4% tween 80, and saline at a constant volume of 1 ml./100 gram rat. Samples are dispersed by sonification. Percent inhibition is calculated on basis of concurrent vehicle control.
In Table B which follows is given the effect on total acid output after 60 minutes (response A) and 120 minutes (response B) for various doses of representative compounds of this invention.

Assay [2] concerns Mean arterial blood pressure. In words: Hypotensive activity in anesthetized normotensive rats. It is filed as in vivo, Royalhart, Wistar strain, male. Conditions: Rattus norvegicus, iv, infused over one minute, read-out: % Decrease Mean Arterial Blood Pressure. The protocol:
The animals used are Royalhart, Wistar strain, male, normotensive rats weighing 250-300 g. The rats are anesthetized using a 100 mg./ml. saline solution of urethane at a rate of 900 mg./kg. intraperitoneally.
The instrumentation used in a Brush model 260 recorder, Statham mode P23Db pressure transducer and Harvard model 940 infusion pump with a 6 cc syringe at speed 4.
The left carotid artery is cannulated with polyethylene tubing for arterial blood pressure. The left external juglar vein is cannulated with polyethylene tubing for […] the test compound is infused over a one minute period in a volume of 0.5 ml., […] (ethanol, 1 M NaHCO3 or saline) and then flushed with 0.4 ml. of saline.
Mean arterial blood pressure is then measured in two test animals per compound against a control value.

For assay [3], the system named is bronchospasms elicited by intravenous injections of acetylcholine. The assay can be described thus: Bronchodilator activity (Konzett assay) against acetylcholine. It is filed as in vivo, guinea pigs. Conditions: Cavia porcellus; three logarithmic cummulative intravenous doses; spasmogen acetylcholine i.v.; read-out: Bronchodilator Activity (Konzett Assays) ED50, Spasmogenic Agent Acetylcholine. On the procedure: (§1) The compounds of this invention are useful as bronchodilators for the treatment of asthma and chronic bronchitis. Bronchodilator activity is determined in guinea pigs against bronchospasms elicited by intravenous injections of 5-hydroxytryptamine, histamine or acetylcholine by the Konzett procedure. [See J. Lulling, P. Lievens, F. El Sayed and J. Prignot, Arzneimittel-Forschung, 18, 955 (1968).]
(§2) In Table A which follows bronchodilator activity for representative compounds of this invention against one or more of three spasmogenic agents is expressed in an ED50 determined from the results obtained with three logarithmic cummulative intravenous doses.

Assay [4] deals with bronchospasms elicited by intravenous injections of histamine. The assay can be described thus: Bronchodilator activity (Konzett assay) against histamine. Type of assay: in vivo, guinea pigs. To be noted: Cavia porcellus; three logarithmic cummulative intravenous doses; spasmogen histamine i.v.; read-out: Bronchodilator Activity (Konzett Assays) ED50, Spasmogenic Agent Histamine. The protocol: as §1, §2

For assay [5], the system named is bronchospasms elicited by intravenous injections of 5-hydroxytryptamine. In words: Bronchodilator activity (Konzett assay) against 5-hydroxytryptamine. Type of assay: in vivo, guinea pigs. To be noted: Cavia porcellus; three logarithmic cummulative intravenous doses; spasmogen 5-hydroxytryptamine i.v.; read-out: Bronchodilator Activity (Konzett Assays) ED50, Spasmogenic Agent 5-Hydroxytryptamine. On the procedure:
as §1, §2

Assay [6] relates to basal gastric acid secretion. In words: Inhibition of gastric acid secretion in the acute gastric fistula rat. It is filed as in vivo, Female Sprague-Dawley rats. To be noted: oral.

As to `CCCCC(O)C(O)CCC1CCC(=O)C1CCCCCCC(=O)O` (racemic) [all racemic erythro-9-oxo-15,16-dihydroxy-prostanoic acid], in assay [1] (10 mg./kg.), the “% Inhibition of Total Acid Output After 60 min.” value turned out to be 56% and the “% Inhibition of Total Acid Output After 120 min.” value was 46%.
As to `CCCCC1OC(C)(C)OC1/C=C/C1CCC(=O)C1CCCCCCC(=O)O` (mixture of isomers) [d,l-erythro-9-oxo-15,16-isopropylidenedioxy-13-trans-prostenoic acid], the inhibition in vivo at 1.3 mg/kg in assay [2] (1.3 mg./kg.) was found to be 63%. In assay [2] (2.5 mg./kg.), the inhibition in vivo at 2.5 mg/kg came out at 21%.
For orientation: ED50 means the dose that gives a 50% effect, or the effect in half of the subjects. As to `CCCC[C@@H](OC)[C@@H](O)/C=C/[C@H]1CCC(=O)[C@@H]1CCCCCCC(=O)O` (relative stereo) [dl-erythro-9-oxo-15-epi-hydroxy-16-methoxy-13-trans-prostenoic acid], the ED50 in assay [3] was above 3.2 mg/kg; in assay [4] it was above 3.2 mg/kg; in assay [5], 7.99 mg/kg. The inhibition in vivo at 2.4 mg/kg in assay [2] was determined as 18%.
Regarding `CCCC[C@@H](O)[C@@H](O)/C=C/[C@H]1[C@H](O)CC(=O)[C@@H]1C/C=C\CCCC(=O)O` (relative stereo) [dl-erythro-9-oxo-11α,15-epi,16-trihydroxy-5-cis,13-trans-prostadienoic acid], the ED50 in assay [3] came out at 2.43 mg/kg; in assay [5], 1.28 mg/kg. The inhibition in vivo at 2 mg/kg in assay [2] (2.0 mg./kg.) came to 57%. Moreover, the “% Inhibition of Total Acid Output After 60 min.” value in assay [6] (10 mg./kg.) stood at 66%; in assay [1] (10 mg./kg.), 100%. Also, the “% Inhibition of Total Acid Output After 120 min.” value is recorded as 65% in assay [6] (10 mg./kg.) and 82% in assay [1] (10 mg./kg.).
Consider `CCCC[C@@H](OC)[C@@H](O)/C=C/[C@H]1[C@H](O)CC(=O)[C@@H]1C/C=C\CCCC(=O)O` (relative stereo) [dl-erythro-9-oxo-11α,15-epi-15-hydroxy-16-methoxy-5-cis,13-trans-prostadienoic acid], for which the inhibition in vivo at 1.9 mg/kg in assay [2] worked out at 19%.
Take `CCCC[C@@H](O)[C@@H](O)/C=C/[C@@H]1[C@@H](C/C=C\CCCC(=O)O)[C@@H](O)C[C@H]1O` (relative stereo) [dl-erythro-9α,11α,15-epi,16-tetrahydroxy-5-cis,13-trans-prostadienoic acid]: the inhibition in vivo at 2.2 mg/kg in assay [2] (2.2 mg./kg.) came out at 20%.
For the molecule `CCCC[C@@H](O)[C@@H](O)/C=C/[C@H]1CCC(=O)[C@@H]1CCCCCCC(=O)OCC` (relative stereo) [d,l-erythro ethyl 9-oxo-15-epi-16-dihydroxy-13-trans-prostenoate], the inhibition in vivo at 2.4 mg/kg in assay [2] is 33%.
As to `CCCC[C@H](OC)[C@H](O)/C=C/[C@H]1CCC(=O)[C@@H]1CCCCCCC(=O)O` (relative stereo) [d,1-erythro-9-oxo-15-hydroxy-16-methoxy-13-trans-prostenoic acid], the ED50 was above 0.32 mg/kg in assay [3] and above 3.2 mg/kg in assay [4]. Besides, in assay [2], the inhibition in vivo at 2.1 mg/kg was 29%.
With `CCCC[C@H](OC)[C@H](O)/C=C/[C@H]1C=CC(=O)[C@@H]1C/C=C\CCCC(=O)O` (relative stereo) [d1-erythro-9-oxo-15-hydroxy-16-methoxy-5-cis,10,13-trans-prostatrienoic acid], the inhibition in vivo at 1.9 mg/kg in assay [2] was determined as 26%.
In the case of `CCCC[C@@H](O)[C@@H](O)/C=C/[C@H]1C=CC(=O)[C@@H]1C/C=C\CCCC(=O)O` (relative stereo) [dl-erythro-9-oxo-15-epi, 16-dihydroxy-5-cis,10,13-trans-prostatrienoic acid], in assay [2], the inhibition in vivo at 2.1 mg/kg is 54%.
As to `CCCC[C@H](O)[C@H](O)/C=C/[C@H]1[C@H](O)CC(=O)[C@@H]1C/C=C\CCCC(=O)O` (relative stereo) [dl-erythro-9-oxo-11α,15,16-trihydroxy-5-cis,13-trans-prostadienoic acid], the 50% effective dose (ED50) in assay [3] turned out to be 0.013 mg/kg; in assay [4], 0.0098 mg/kg; in assay [5], 0.024 mg/kg. Also, in assay [2] (0.1 mg./kg.), the inhibition in vivo at 0.1 mg/kg was found to be 6%. The “% Inhibition of Total Acid Output After 60 min.” value in assay [6] (5 mg./kg.) amounted to 86%; in assay [1] (10 mg./kg.), 98%. For the same molecule, the “% Inhibition of Total Acid Output After 120 min.” value in assay [6] (5 mg./kg.) was 89%; in assay [1] (10 mg./kg.), 55%.
`CCCCC(O)C(O)/C=C/C1CCC(=O)C1CCCCCCC(=O)O` (mixture of isomers) [all racemic erythro-9-oxo-15,16-dihydroxy-13-trans-prostenoic acid]: the results for the ED50 in assay [4] and in assay [5] were 0.01 mg/kg and 0.537 mg/kg, respectively.
In the case of `CCCCC1OC(C)(C)OC1/C=C/C1C(OC2CCCCO2)CC(=O)C1C/C=C\CCCC(=O)O` (mixture of isomers) [d,l-erythro-9-oxo-11α-tetrahydropyranyloxy-15,16-isopropylidenedioxy-5-cis,13-trans-prostadienoic acid], in assay [1] (10 mg./kg.), the “% Inhibition of Total Acid Output After 60 min.” value was determined as 55% and the “% Inhibition of Total Acid Output After 120 min.” value came out at 29%.
On to `CCCC[C@H](O)[C@H](O)/C=C/[C@H]1CCC(=O)[C@@H]1CCCCCCC(=O)O` (relative stereo) [d,l-erythro-9-oxo-15,16-dihydroxy-13-trans-prostenoic acid], for which the inhibition in vivo at 2.1 mg/kg in assay [2] was determined as 23%. Further, in assay [1] (2.5 mg./kg.), the “% Inhibition of Total Acid Output After 60 min.” value came to 77% and the “% Inhibition of Total Acid Output After 120 min.” value came out at 76%.
For the molecule `CCCC[C@@H](OC)[C@@H](O)/C=C/[C@H]1CCC(=O)[C@@H]1CCCCCCC(=O)OCC` (relative stereo) [d,l-erythro ethyl 9-oxo-15-epi-hydroxy-16-methoxy-13-trans-prostenoate], in assay [2] (2.3 mg./kg.), the inhibition in vivo at 2.3 mg/kg was found to be 9%.
As for `CCCCC(OC)C(O)/C=C/C1CCC(=O)C1CCCCCCC(=O)OCC` (mixture of isomers) [all racemic erythro ethyl 9-oxo-15-hydroxy-16-methoxy-13-trans-prostenoate], in assay [1] (10 mg./kg.), the “% Inhibition of Total Acid Output After 60 min.” value was 43% and the “% Inhibition of Total Acid Output After 120 min.” value came out at 0%.
With `CCCC[C@@H](O)[C@@H](O)/C=C/[C@H]1CCC(=O)[C@@H]1CCCCCCC(=O)O` (relative stereo) [d,l-erythro-9-oxo-15-epi,16-dihydroxy-13-trans-prostenoic acid], in assay [1] (10 mg./kg.), the “% Inhibition of Total Acid Output After 60 min.” value is on record as 0% and the “% Inhibition of Total Acid Output After 120 min.” value came out at 42%.
On to `CCCC[C@H](OC)[C@H](O)/C=C/[C@H]1[C@H](O)CC(=O)[C@@H]1C/C=C\CCCC(=O)O` (relative stereo) [d,1-erythro-9-oxo-11α,15-dihydroxy-16-methoxy-5-cis,13-trans-prostadienoic acid], for which the inhibition in vivo at 1.8 mg/kg in assay [2] (1.8 mg./kg.) amounted to 44%.
